target: T1, α5β1 integrin (Homo sapiens, UniProt P05556+P08648); experiment: In vitro cell adhesion assay: α5β1 integrin mediated adhesion of K562 cells to fibronectin fragment Fn9-10; format: cell-based; settings: human K562 erythroleukaemia cells; Fn9-10 coated plates; 0.2 mM MnCl; 45 minutes at 37° C.; crystal violet absorbance at 590 nm
T1 construct: α5β1 integrin mediated adhesion of K562 cells; host or cells: K562 human erythroleukaemia cells (integrin, endogenous); E. coli (Fn9-10 ligand, made in house)
T1 sequence (P08648 42-894 limits assumed): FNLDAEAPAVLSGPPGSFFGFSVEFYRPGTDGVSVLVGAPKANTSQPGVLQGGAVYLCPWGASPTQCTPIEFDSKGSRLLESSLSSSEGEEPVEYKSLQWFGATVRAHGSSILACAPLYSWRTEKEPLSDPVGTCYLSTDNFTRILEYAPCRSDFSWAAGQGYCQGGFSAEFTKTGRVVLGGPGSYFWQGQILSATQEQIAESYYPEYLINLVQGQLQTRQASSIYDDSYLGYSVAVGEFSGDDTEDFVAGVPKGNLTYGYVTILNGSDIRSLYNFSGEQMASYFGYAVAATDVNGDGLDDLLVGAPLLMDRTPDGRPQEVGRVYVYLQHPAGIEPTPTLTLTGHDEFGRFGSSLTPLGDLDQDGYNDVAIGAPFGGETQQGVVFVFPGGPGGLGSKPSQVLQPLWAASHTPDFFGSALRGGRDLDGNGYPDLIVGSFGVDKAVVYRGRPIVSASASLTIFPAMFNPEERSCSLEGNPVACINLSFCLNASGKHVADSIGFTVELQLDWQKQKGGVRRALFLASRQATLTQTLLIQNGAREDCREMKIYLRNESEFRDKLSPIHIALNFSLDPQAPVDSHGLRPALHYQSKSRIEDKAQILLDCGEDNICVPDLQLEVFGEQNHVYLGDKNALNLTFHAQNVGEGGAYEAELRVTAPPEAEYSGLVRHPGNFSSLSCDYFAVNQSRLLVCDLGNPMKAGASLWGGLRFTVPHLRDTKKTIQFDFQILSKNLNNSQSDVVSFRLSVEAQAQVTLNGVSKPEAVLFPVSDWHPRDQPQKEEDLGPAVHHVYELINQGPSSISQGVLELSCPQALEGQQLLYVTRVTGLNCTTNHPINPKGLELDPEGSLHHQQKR
T1 sequence (P08648 895-1049 partner limits assumed): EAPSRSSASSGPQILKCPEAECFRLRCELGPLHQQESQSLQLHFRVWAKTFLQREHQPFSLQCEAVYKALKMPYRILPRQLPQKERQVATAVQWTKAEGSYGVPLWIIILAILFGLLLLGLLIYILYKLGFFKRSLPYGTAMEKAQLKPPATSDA
T1 sequence (P05556 21-798): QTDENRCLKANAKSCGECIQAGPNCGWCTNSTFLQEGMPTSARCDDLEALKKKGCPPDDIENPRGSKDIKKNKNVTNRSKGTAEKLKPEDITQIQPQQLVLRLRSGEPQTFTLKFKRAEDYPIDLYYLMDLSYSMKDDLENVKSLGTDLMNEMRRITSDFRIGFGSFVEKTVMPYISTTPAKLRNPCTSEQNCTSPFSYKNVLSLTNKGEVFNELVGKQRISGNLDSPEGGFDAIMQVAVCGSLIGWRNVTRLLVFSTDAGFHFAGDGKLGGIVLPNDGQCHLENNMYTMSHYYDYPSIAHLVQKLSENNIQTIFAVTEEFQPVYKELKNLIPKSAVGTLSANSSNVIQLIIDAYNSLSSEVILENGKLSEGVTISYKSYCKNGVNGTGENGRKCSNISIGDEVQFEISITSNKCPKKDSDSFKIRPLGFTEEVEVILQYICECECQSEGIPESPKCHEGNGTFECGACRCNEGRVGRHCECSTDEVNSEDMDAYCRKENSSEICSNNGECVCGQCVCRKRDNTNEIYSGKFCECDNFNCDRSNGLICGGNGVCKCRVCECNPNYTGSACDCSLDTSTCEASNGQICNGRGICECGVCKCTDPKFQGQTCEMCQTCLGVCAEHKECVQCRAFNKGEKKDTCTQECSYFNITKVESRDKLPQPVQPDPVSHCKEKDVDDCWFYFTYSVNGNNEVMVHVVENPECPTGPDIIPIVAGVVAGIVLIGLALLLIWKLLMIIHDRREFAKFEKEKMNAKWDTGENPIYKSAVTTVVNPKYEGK
Description: The assay determined the ability of compounds to inhibit the α5β1 integrin mediated adhesion of K562 cells to the ligand, a fragment of human fibronectin. The human K562 erythroleukaemia cell line (LGC Promochem, Teddington, Middlesex, UK, Catalogue No. CCL-243) was routinely maintained in RPMI 1640 medium (Sigma-Aldrich Company Ltd, Gillingham, Dorset SP8 4XT, Catalogue No. R0883) containing 10% heat-inactivated foetal calf serum (PAA lab GmbH, Pasching, Austria Catalogue No. PAA-A15-043) and 1% glutamax-1 (Invitrogen Ltd. Paisley, UK Catalogue No. 35050-038) at 37° C. with 5% CO2 at densities between 1×10^5 and 1×10^6 cells/ml.
A DNA fragment encoding the domains 9-10 (amino-acids 1325-1509) of human fibronectin (Swiss-Prot Accession No. P02751) was isolated from cDNA libraries using standard molecular biology and PCR cloning techniques. The cDNA fragment was sub-cloned into a pT7#3.3 expression vector containing a GST-epitope tag (developed at AstraZeneca; Bagnall et al., Protein Expression and Purification, 2003, 27: 1-11), and the fragment termed Fn9-10. Following expression in E. coli, the expressed protein was purified using the GST-tag using standard purification techniques.
For adhesion assay, a 96-well flat bottomed plate (Greiner Bio one ltd., Gloucester GL10 3SX Catalogue No. 655101) was coated overnight at 4° C. with 100 μl of 20 μg/ml Fn9-10 ligand in Dulbecco's PBS (Gibco #14190-94). The plate was then washed twice with 200 μl of PBS and blocked with 100 μl of 3% BSA (SigmaA7888) in PBS for 1 hour at 37° C. The plates were then washed again 3 times with 200 μl of PBS and left empty. […]
After fixation, the ethanol was flicked off to waste and 100 μl of 0.1% Crystal violet stain was added to each well, and incubated at ambient temperature for 15 minutes. […] Finally, 100 μl of deionised water was added to each well and the absorbance was determined at 590 nm on a spectrophotometer. The minimum value was subtracted from all values, and the absorbance signal was plotted against compound concentration to generate IC50 data.

IC50	SMILES
≥ 30 µM	Cc1cccc(Cl)c1C(=O)N[C@@H](Cc1ccc(C2=CCN(Cc3ccc(F)cc3)CC2)cc1)C(=O)O [N-(2-chloro-6-methylbenzoyl)-4-[1-(4-fluorobenzyl)-1,2,3,6-tetrahydropyridin-4-yl]-L-phenylalanine]
≥ 30 µM	O=C(N[C@@H](Cc1ccc(C2CCN(Cc3ccccc3F)CC2)cc1)C(=O)O)c1c(Cl)cccc1Cl [N-(2,6-dichlorobenzoyl)-4-[1-(2-fluorobenzyl)piperidin-4-yl]-L-phenylalanine]
≥ 30 µM	COc1cccc(CN2CCC(c3ccc(C[C@H](NC(=O)c4c(Cl)cccc4Cl)C(=O)O)cc3)CC2)c1 [N-(2,6-dichlorobenzoyl)-4-[1-(3-methoxybenzyl)piperidin-4-yl]-L-phenylalanine]

From US20090137601A1, “L-Phenylalanine Derivatives” (ASTRAZENECA AB, priority 2005, published 2009)
